Patent US10314308B2, “Microbiocidal benzoxaboroles” (SYNGENTA PARTICIPATIONS AG, priority 2015, dated 2019)

Key:
[1] = system: Monographella Nivalis(Microdochium Nivale); assay: Monographella nivalis (Microdochium nivale) / liquid culture (foot rot cereals); format: cell-based; details: PDB potato dextrose broth, 24° C., 4-5 days after application, read-out: disease control (inhibition of growth, photometrically)
Outline: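 Conidia from cryogenic storage mixed into potato dextrose broth, added to compound pre-dispensed from DMSO solution. Incubated at 24° C.; growth inhibition read photometrically 4-5 days after application.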

[2] = system: Sclerotinia Sclerotiorum; assay: Sclerotinia sclerotiorum / liquid culture (cottony rot); format: cell-based; details: PDB potato dextrose broth, 24° C., 3-4 days after application, read-out: disease control (inhibition of growth, visually)
Outline: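 Mycelial fragments from fresh liquid culture in potato dextrose broth added to test compounds in DMSO. Incubated at 24° C; growth inhibition scored visually 3-4 days after application.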

[3] = system: Phaeosphaeria Nodorum (Septoria Nodorum); assay: Phaeosphaeria nodorum (Septoria nodorum) / wheat / leaf disc preventative (glume blotch); format: in vivo; details: Parastagonospora nodorum, foliar, wheat leaf segments cv Kanzler, inoculated 2 days after application, assessed 5-7 days after application, read-out: disease control
Outline: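 Wheat cv Kanzler leaf discs on agar were sprayed with formulated compound, then inoculated with spores 2 days later. Incubation at 20° C, 75% RH, 12/12 h light/dark; percent disease control versus untreated assessed 5-7 days after application.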

[4] = system: Phytophthora Infestans; assay: whole plant or invertebrate; format: in vivo; details: in Solanum lycopersicum, foliar, read-out: disease control
[5] = system: Mycosphaerella Arachidis(Cercospora Arachidicola); assay: Mycosphaerella arachidis (Cercospora arachidicola) / liquid culture (early leaf spot); format: cell-based; details: PDB potato dextrose broth, 24° C., 4-5 days after application, read-out: disease control (inhibition of growth, photometrically)
Outline: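 Cryo-stored conidia in potato dextrose broth were added to compound in DMSO in microtiter plates. After incubation at 24 °C, growth inhibition was measured photometrically 4-5 days after application.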

[6] = system: Pythium Ultimum; assay: Pythium ultimum / liquid culture (seedling damping off); format: cell-based; details: Globisporangium ultimum, potato dextrose broth, 24° C., 2-3 days after application, read-out: disease control (inhibition of growth, photometrically)
[7] = system: Fusarium Culmorum; assay: microbe, parasite or virus in culture; format: cell-based; details: read-out: disease control (inhibition of growth, photometrically)
[8] = system: Mycosphaerella Graminicola(Septoria Tritici); assay: Mycosphaerella graminicola (Septoria tritici) / liquid culture (Septoria blotch); format: cell-based; details: Zymoseptoria tritici, PDB potato dextrose broth, 24° C., 4-5 days after application, read-out: disease control (inhibition of growth, photometrically)
Outline: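 Cryostored conidia mixed into potato dextrose broth and added to compound dispensed from DMSO solution. Incubation at 24 °C; growth inhibition read photometrically 4-5 days after application.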

[9] = system: Gaeumannomyces Graminis; assay: Gaeumannomyces graminis / liquid culture (take-all of cereals); format: cell-based; details: PDB potato dextrose broth, 24° C., 4-5 days after application, read-out: disease control (inhibition of growth, photometrically)
Outline: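 Mycelial fragments from cryogenic storage mixed into potato dextrose broth and added to test compound in DMSO. Incubated at 24° C; growth inhibition read photometrically 4-5 days after application.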

[10] = system: Botryotinia Fuckeliana(Botrytis Cinerea); assay: Botryotinia fuckeliana (Botrytis cinerea) / liquid culture (gray mould); format: cell-based; details: Vogels broth, 24° C., 3-4 days after application, read-out: disease control (inhibition of growth, photometrically)
Experimental: 9 Botryotinia Fuckeliana(Botrytis Cinerea)/Liquid Culture (Gray Mould) Conidia of the fungus from cryogenic storage were directly mixed into nutrient broth (Vogels broth). After placing a DMSO solution of test compound into a 96-well microtiter plate, the nutrient broth containing the fungal spores was added. The test plates were incubated at 24° C. and the inhibition of growth was determined photometrically 3-4 days after application.

[11] = system: Glomerella Lagenarium(Colletotrichum Ladenarium); assay: Glomerella lagenarium (Colletotrichum lagenarium) / liquid culture (anthracnose); format: cell-based; details: PDB potato dextrose broth, 24° C., 3-4 days after application, read-out: disease control (inhibition of growth, photometrically)
Outline: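 Cryostored conidia were suspended in potato dextrose broth and added to compound in DMSO. Cultures were incubated at 24 °C. Growth inhibition was measured photometrically 3–4 days after application.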

[12] = system: Thanatephorus Cucumeris(Rhizoctonia Solani); assay: Thanatephorus cucumeris (Rhizoctonia solani) / liquid culture (foot rot, damping-off); format: cell-based; details: PDB potato dextrose broth, 24° C., 3-4 days after application, read-out: disease control (inhibition of growth, photometrically)
Outline: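 Mycelial fragments in potato dextrose broth exposed to compound (DMSO solution) at 200 ppm. Incubation at 24° C.; growth inhibition measured photometrically 3-4 days after application.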

[13] = system: Plasmopara Viticola; assay: whole plant or invertebrate; format: in vivo; details: foliar, read-out: disease control
[14] = system: Puccinia Recondita f. sp. Tritici; assay: Puccinia recondita f. sp. tritici / wheat / leaf disc preventative (brown rust); format: in vivo; details: foliar, wheat leaf segments cv Kanzler, inoculated 1 day after application, assessed 7-9 days after application, read-out: disease control
Experimental: 3 Puccinia Recondita f. sp. Tritici/Wheat/Leaf Disc Preventative (Brown Rust) Wheat leaf segments cultivated variety (cv) Kanzler were placed on agar in 24-well plates and sprayed with formulated test compound diluted in water. The leaf disks were inoculated with a spore suspension of the fungus 1 day after application. The inoculated leaf segments were incubated at 19° C. and 75% relative humidity under a light regime of 12/12 h (light/dark) in a climate cabinet and the activity of a compound was assessed as percent disease control compared to untreated when an appropriate level of disease damage appears in untreated check leaf segments (7-9 days after application).

SMILES | inhibition at 20 ppm [1] [%] | inhibition at 20 ppm [2] [%] | melting point [°C] | pest or weed control at 200 ppm [3] [%] | pest or weed control at 200 ppm [4] [%] | inhibition at 20 ppm [5] [%] | inhibition at 20 ppm [6] [%] | inhibition at 20 ppm [7] [%] | inhibition at 20 ppm [8] [%] | inhibition at 20 ppm [9] [%] | inhibition at 20 ppm [10] [%] | inhibition at 20 ppm [11] [%] | inhibition at 20 ppm [12] [%] | pest or weed control at 200 ppm [13] [%] | pest or weed control at 200 ppm [14] [%]
OB1OCc2cc(F)c(-c3cnoc3)cc21 [Compound 11] | ≥ 80 | ≥ 80 | 230 to 232 | ≥ 80 | ≥ 80 | ≥ 80 | ≥ 80 | ≥ 80 | ≥ 80 | ≥ 80 | – | – | – | – | –
OB1OCc2cc(F)c(-c3ncno3)cc21 [Compound 29] | ≥ 80 | ≥ 80 | 204 to 206 | ≥ 80 | ≥ 80 | ≥ 80 | ≥ 80 | ≥ 80 | ≥ 80 | ≥ 80 | ≥ 80 | ≥ 80 | ≥ 80 | – | –
Cc1cc(-c2cc3c(cc2F)COB3O)c(C#N)o1 [Compound 56] | ≥ 80 | – | – | – | ≥ 80 | ≥ 80 | ≥ 80 | – | – | ≥ 80 | – | – | ≥ 80 | ≥ 80 | ≥ 80
OB1OCc2cc(Cl)c(-c3nnco3)cc21 [Compound 94] | – | ≥ 80 | 202 to 204 | ≥ 80 | ≥ 80 | ≥ 80 | ≥ 80 | – | ≥ 80 | ≥ 80 | – | ≥ 80 | – | – | –
OB1OCc2cc(F)c(-c3ncon3)cc21 [Compound 97] | ≥ 80 | ≥ 80 | 226 to 228 | ≥ 80 | ≥ 80 | ≥ 80 | ≥ 80 | ≥ 80 | ≥ 80 | ≥ 80 | ≥ 80 | ≥ 80 | ≥ 80 | – | –
